Assays:
Format in all cases: in vivo, Sprague Dawley adult albino rats
[1] = tested on: STZ-induced diabetic rats; assay: STZ-induced diabetic rat model: serum biochemical parameters (liver, renal, lipid profile, HbA1c)
Procedure: (§1) All the animals were separated into nine groups having eight animals each (Table 1). In the current investigational study STZ-induced diabetic model was used to evaluate the anti-hyperglycemic and anti-hyperlipidemic activity of isolated compound morin in chronic multiple dose experiment. All the animals were treated with their respective treatments for 21 days starting daily at 09:00 am. The fasting blood glucose levels were determined at 0, 4th, 7th, 10th, 15th, and 21st days with glucometer from the tail vein. Changes in the body weight were recorded for untreated control, diabetic, and treated groups in fasting condition from day 1 to day 21 of experimental period and are presented as % increase in body weight.
(§2) According to the reported protocol diabetes was induced into Sprague Dawley adult albino rats by intraperitoneal injection of STZ (50 mg/kg body weight). Blood samples were collected from the tail vein through glucometer strips by means of SD glucometer and the level of blood glucose was measured 72 h after STZ injection. Normal control groups were given normal saline (8 mL/kg, p.o.) as a vehicle, while isolated compound morin to the treatment groups from 3 days after STZ administration for 3 weeks. Animals with blood glucose levels higher than 300 mg/dL were considered diabetic. During the experiment the blood glucose level and body weights were measured.
On 21st day of in vivo antidiabetic activity, all the animals were anesthetized by intraperitoneal (IP) injection of pentobarbital sodium (35 mg/kg body weight) and euthanized by means of cervical decapitation according to the ARRIVE guidelines. Blood samples were collected by cardiac puncture and transferred to EDTA containing tubes. Blood was centrifuged at 3500 rpm for 10 min for the separation of serum. Biochemical parameters like serum alkaline phosphatase (ALP), serum glutamate pyruvate transaminase (SGPT), serum glutamate oxaloacetate transaminase (SGOT) and lipid parameters like total cholesterol (TC), triglycerides (TG), low-density lipoproteins (LDL), high-density lipoprotein (HDL), and serum creatinine in serum were assessed by using Biochemistry analyzer (PS-520; Shenzhen Procan Electronics-China) using diagnostic kits (Reactivos, GPL Barcelona, Spain). According to the reported protocol an enzyme-linked immunosorbent assay (ELISA) kit was used to evaluate the level of glycosylated hemoglobin (HbA1c).

[2] = tested on: STZ-induced diabetic rats; assay: STZ-induced diabetic rat model: fasting blood glucose and body weight
Procedure: Sprague Dawley adult albino rats (body weight range = 170–200 g) were used in in vivo studies. The animals were purchased from Rifah Institute of Pharmaceutical Sciences Islamabad. The entire animals were given food and fresh water ad libitum. The animals were adjusted at room temperature around 22–25 °C. The animals were housed three rats per cage and maintained with light/dark cycle of about 12 h. All the in vivo procedures were carried out according to the ARRIVE guidelines and approval was taken from the Departmental Animal Ethical Committee (DAEC/2019/1), University of Malakand.
as §1, §2

[3] = tested on: STZ-induced diabetic rats; assay: Ex vivo DPPH scavenging of pancreas tissue homogenates (intracellular ROS level); set-up: dose or concentration left out as unconfirmed
Procedure: The pancreas tissue (1 g) was isolated from Sprague Dawley rats, washed with cold saline solution and blotted dried. A weighed portion of the pancreas tissue was homogenized on ice and then centrifuged for 15 min at 3500 rpm at 4 °C. The supernatant was then taken and stored at −20 °C until assessed for different enzymes.
Cellular oxidative stress due to the overproduction of reactive oxygen species (ROS) generated by streptozotocin was measured in pancreas tissues through DPPH free radical scavenging assays. Briefly, 50 µL (0.3 mM) DPPH in methanol was incubated with 100 µL supernatant of the tissue homogenates of each experimental group and […] in the dark for 30 min at room temperature. Ascorbic acid was used as the standard. The absorbance was then read against a blank at 517 nm. The percentage scavenging was calculated according to the equation No 1.

[4] = tested on: STZ-induced diabetic rats; assay: Pancreas histopathological assessment (H & E)
Description: For histopathological assessment, the pancreas tissues were removed immediately and washed with cold saline solution to remove the blood. Finally, the pancreas portions were fixed in 10% formalin, dehydrated with mixture of ethanol/xylene and then fixed with paraffin. Staining of tissue slides was done with hematoxylin and eosin (H & E) dye through automatic slide stainer (Sakura Tissue-Tek® DRS™ 2000; Tokyo, Japan). According to the reported assay, the stained slides were observed under microscope to see any variation in pancreatic tissue architecture of STZ-induced diabetic group and treated (glibenclamide/morin) groups.

[5] = glibenclamide 0.5 mg/kg, morin 15, 30, and 50 mg/kg, vs diabetic control rats
[6] = glibenclamide 5 mg/kg, morin 15, 30, and 50 mg/kg body weight, serum, day 21, vs diabetic control

O=c1c(O)c(-c2ccc(O)cc2O)oc2cc(O)cc(O)c12 [Morin, 2-(2,4-Dihydroxyphenyl)-3,5,7-trihydroxychromen-4-one]
HDL cholesterol [1, 5]: significantly increased (p < 0.01)
HbA1c level [1, 5]: significant decrease (p < 0.01; p < 0.001)
LDL level [1, 5]: significant decrease (p < 0.01; p < 0.001)
TC level [1, 5]: significant decrease (p < 0.01; p < 0.001)
TG level [1, 5]: significant decrease (p < 0.01; p < 0.001)
serum creatinine level ([1]; glibenclamide 5 mg/kg, morin 15, 30, and 50 mg/kg body weight, day 21, vs diabetic control): significantly reduced (p < 0.01; p < 0.001)
ALP level [1, 6]: significantly reduced (p < 0.01; p < 0.001)
SGOT level [1, 6]: significantly reduced (p < 0.01; p < 0.001)
SGPT level [1, 6]: significantly reduced (p < 0.01; p < 0.001)
body weight gain ([2]; morin 10 mg/kg body weight): significant (p < 0.01) increases
blood glucose level ([2]; morin 2 and 5 mg/kg body weight): slowly reduce blood glucose level
glucose level ([2]; morin 10, 15, 30, and 50 mg/kg body weight, compared to the diabetic control group): comparable decline in glucose level
body weight gain ([2]; morin 15, 30, and 50 mg/kg body weight): significant (p < 0.001) improvement
blood glucose level ([2]; morin oral 30, 15, 50 mg/kg body weight, vs diabetic control): significant (p ˂ 0.01) decrease
% DPPH inhibition activity in the pancreas tissues ([3]; morin 2 treated group, diabetic control 22.41 ± 4.25): 49.88 ± 3.21%
% DPPH inhibition activity in the pancreas tissues ([3]; morin 5 treated group): 52.66 ± 2.81%
% DPPH inhibition activity in the pancreas tissues ([3]; morin 10 treated group): 60.42 ± 2.12%
% DPPH inhibition activity in the pancreas tissues ([3]; morin 15 treated group): 65.33 ± 22.13%
% DPPH inhibition activity in the pancreas tissues ([3]; morin 30 treated group): 69.33 ± 3.12%
% DPPH inhibition activity in the pancreas tissues ([3]; morin 50 treated group): 71.42 ± 3.23%
pancreas histopathology ([4]; morin 2, 5 mg/kg orally): did not show restoration of pancreatic tissue
pancreas histopathology ([4]; morin 10, 15 mg/kg orally): significant dose dependent improvement in cellular architecture
pancreas histopathology ([4]; morin 30, 50 mg/kg orally): normal histological pattern of pancreas

From article PMC8348310, “Antioxidants Isolated from Elaeagnus umbellata (Thunb.) Protect against Bacterial Infections and Diabetes in Streptozotocin-Induced Diabetic Rat Model” (Molecules, 2021)
